Experimental data: the supplement of paper PMC4862054

How the values were obtained:
Assay in all cases: normalised viability (% of control), CellTiter-Blue; higher = more viable cells (about 100 = DMSO control)
Details in all cases: incubation time: 72 h
CAL-148 [1] = system: CAL-148
Procedure: (§1)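 DSRT, CellTiter-Blue viability, 72 h incubation. Signal is normalised to DMSO and benzethonium chloride controls. Value is the normalised response at dose 6.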

CAL-51 [2] = system: CAL-51
Procedure: as §1

CAL-85-1 [3] = system: CAL-85-1
Procedure: as §1

DU-4475 [4] = system: DU-4475
Procedure: as §1

HDQ-P1 [5] = system: HDQ-P1
Procedure: as §1

MDA-MB-453 [6] = system: MDA-MB-453
Procedure: as §1

CAL-148 [7] = system: CAL-148; remark: listed apart in the source
Procedure: (§2)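 DSRT, CellTiter-Blue viability, 72 h incubation. Signal is normalised to DMSO and benzethonium chloride controls. Value is the normalised response at dose 8.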

CAL-51 [8] = system: CAL-51; remark: listed apart in the source
Procedure: as §2

CAL-85-1 [9] = system: CAL-85-1; remark: listed apart in the source
Procedure: as §2

DU-4475 [10] = system: DU-4475; remark: listed apart in the source
Procedure: as §2

HDQ-P1 [11] = system: HDQ-P1; remark: listed apart in the source
Procedure: as §2

MDA-MB-453 [12] = system: MDA-MB-453; remark: listed apart in the source
Procedure: as §2

## C=CCn1c(=O)c2cnc(Nc3ccc(N4CCN(C)CC4)cc3)nc2n1-c1cccc(C(C)(C)O)n1 [MK1775] (300 nM)
CAL-148 [1]
  normalised viability: 45.3%
CAL-51 [2]
  normalised viability: 62.9%
CAL-85-1 [3]
  normalised viability: 66.6%
DU-4475 [4]
  normalised viability: 68.7%
HDQ-P1 [5]
  normalised viability: 49.3%
MDA-MB-453 [6]
  normalised viability: 60%

## C=CCn1c(=O)c2cnc(Nc3ccc(N4CCN(C)CC4)cc3)nc2n1-c1cccc(C(C)(C)O)n1 [MK1775] (3000 nM)
CAL-148 [7]
  normalised viability: 6.03%
CAL-51 [8]
  normalised viability: 7.19%
CAL-85-1 [9]
  normalised viability: 19.2%
DU-4475 [10]
  normalised viability: 2.03%
HDQ-P1 [11]
  normalised viability: 27.3%
MDA-MB-453 [12]
  normalised viability: 19.3%

## CN(Cc1cnc2nc(N)nc(N)c2n1)c1ccc(C(=O)N[C@@H](CCC(=O)O)C(=O)O)cc1 [Methotrexate] (300 nM)
CAL-148 [1]
  normalised viability: 66.8%
CAL-51 [2]
  normalised viability: 48.6%
CAL-85-1 [3]
  normalised viability: 68.7%
DU-4475 [4]
  normalised viability: 110%
HDQ-P1 [5]
  normalised viability: 69%
MDA-MB-453 [6]
  normalised viability: 95.2%

## CN(Cc1cnc2nc(N)nc(N)c2n1)c1ccc(C(=O)N[C@@H](CCC(=O)O)C(=O)O)cc1 [Methotrexate] (3000 nM)
CAL-148 [7]
  normalised viability: 56.3%
CAL-51 [8]
  normalised viability: 39.6%
CAL-85-1 [9]
  normalised viability: 57.7%
DU-4475 [10]
  normalised viability: 101%
HDQ-P1 [11]
  normalised viability: 82.7%
MDA-MB-453 [12]
  normalised viability: 91.4%

## COc1c2occc2cc2ccc(=O)oc12 [Methoxsalen] (300 nM)
CAL-148 [1]
  normalised viability: 114%
CAL-51 [2]
  normalised viability: 104%
CAL-85-1 [3]
  normalised viability: 107%
DU-4475 [4]
  normalised viability: 111%
HDQ-P1 [5]
  normalised viability: 88.7%
MDA-MB-453 [6]
  normalised viability: 99.9%

## COc1c2occc2cc2ccc(=O)oc12 [Methoxsalen] (3000 nM)
CAL-148 [7]
  normalised viability: 91.4%
CAL-51 [8]
  normalised viability: 112%
CAL-85-1 [9]
  normalised viability: 96.2%
DU-4475 [10]
  normalised viability: 94.6%
HDQ-P1 [11]
  normalised viability: 118%
MDA-MB-453 [12]
  normalised viability: 114%

## CO[C@@H]1[C@H](N(C)C(=O)c2ccccc2)C[C@H]2O[C@]1(C)n1c3ccccc3c3c4c(c5c6ccccc6n2c5c31)C(=O)NC4 [Midostaurin] (300 nM)
CAL-148 [1]
  normalised viability: 106%
CAL-51 [2]
  normalised viability: 28.9%
CAL-85-1 [3]
  normalised viability: 86.6%
DU-4475 [4]
  normalised viability: 76%
HDQ-P1 [5]
  normalised viability: 53.6%
MDA-MB-453 [6]
  normalised viability: 65.5%

## CO[C@@H]1[C@H](N(C)C(=O)c2ccccc2)C[C@H]2O[C@]1(C)n1c3ccccc3c3c4c(c5c6ccccc6n2c5c31)C(=O)NC4 [Midostaurin] (3000 nM)
CAL-148 [7]
  normalised viability: 84.4%
CAL-51 [8]
  normalised viability: 6.39%
CAL-85-1 [9]
  normalised viability: 73.4%
DU-4475 [10]
  normalised viability: 3.23%
HDQ-P1 [11]
  normalised viability: 50.5%
MDA-MB-453 [12]
  normalised viability: 69.6%

## CO[C@@]12[C@H](COC(N)=O)C3=C(C(=O)C(C)=C(N)C3=O)N1C[C@@H]1N[C@@H]12 [Mitomycin C] (300 nM)
CAL-148 [1]
  normalised viability: 105%
CAL-51 [2]
  normalised viability: 102%
CAL-85-1 [3]
  normalised viability: 98.7%
DU-4475 [4]
  normalised viability: 86%
HDQ-P1 [5]
  normalised viability: 83.7%
MDA-MB-453 [6]
  normalised viability: 110%
